# From patent publication US20250127803A1, “2'-FUCOSYLLACTOSE AND LACTO-N-NEOTETRAOSE FOR PREVENTING AND TREATING OVERWEIGHT” (HEALTH AND HAPPINESS (H&H) HONG KONG LTD, priority 2022, published 2025)
# Values joined by “and” are separate entries in the source; they are usually repeats but may differ in a detail not shown here. Identical values can stand only once.
# System: C. elegans
# Experiment: Fat-reducing effect on C. elegans (Nile red lipid staining, fluorescence)
# Type: in vivo
# Details: for Fat Reduction (%) vs. Control: vs NG medium; for effectiveness in reducing the lipid level relative to Orlistat as reference: specific concentrations, summary statement
# Method: Plates with a diameter of 100×15 mm have been filled with NGM (Nematode Growth Medium, as standard, hereafter NG medium (Fisher Scientific). Nile red (Sigma, St. Louis, MO, USA) was added to the solid surface of the NGM plates seeded at a final concentration of 0.05 μg/mL
# For each of the experiments 2 NG medium plates were used, which had been supplemented with 2′-fucosyllactose in different amounts each, i.e. […] As negative control two plates with NG medium were used. As positive control two NG medium plates with Orlistat® were used.
# 60 synchronized worms at young adult stage were added to each plate with Escherichia coli strain OP50 as a food source and cultured under aerobic conditions at 20° C.
# All worms were subjected to a lipid staining method, following the protocol previously described (Martorell et al., 2016).
# All nematodes from each plate were transferred to M9 buffer and the fluorescence was measured using a FP-8300 system (JASCO Analytical Instrument, Easton, MD, USA). Fat deposition in worms was determined by one-way ANOVA test, using a Tukey's multiple comparison post-test.
# Results are given as the mean±standard deviation. The statistical analyses were performed with GraphPad Prism 9 software. Statistical significance is indicated at 5%. […]
Molecule,Fat Reduction (%) vs. Control (0.01 mg/L in NG medium) [%],Fat Reduction (%) vs. Control (0.1 mg/L in NG medium) [%],Fat Reduction (%) vs. Control (1 mg/L in NG medium) [%],fat reduction compared to negative control conditions (NG medium) (1 mg/mL) [%],effectiveness relative to the positive control orlistat (1 mg/ml),Fat Reduction (%) vs. Control (10 mg/L in NG medium) [%],fat reduction compared to negative control conditions (NG medium) (10 mg/mL) [%],effectiveness relative to the positive control orlistat (10 mg/ml),Fat Reduction (%) vs. Control (30 mg/L in NG medium) [%],effectiveness in reducing the lipid level relative to Orlistat as reference,effect on fat content in nematodes (the lower and higher doses),"Fat Reduction (%) vs. Control (6 μg/mL in NG medium, positive control)","Fat Reduction (%) vs. Control (6 μg/mL in NG medium, positive control, listed as Orlistate) [%]","Fat Reduction (%) vs. Control (6 μg/mL in NG medium, positive control, listed as orlistat) [%]"
2′-fucosyllactose [2′-FL],−2.38,11.37,23.61,23.6,about 78%,25.35,25.3,~83%,5.28,70-90%,no functional effect,–,–,–
"CC(=O)N[C@H]1[C@H](O[C@H]2[C@@H](O)[C@@H](CO)O[C@@H](O[C@H]3[C@H](O)[C@@H](O)C(O)O[C@@H]3CO)[C@@H]2O)O[C@H](CO)[C@@H](O[C@@H]2O[C@H](CO)[C@H](O)[C@H](O)[C@H]2O)[C@@H]1O (mixture of isomers) [LNnT, Lacto-N-neotetraose]",−5.01,−0.08,3.08,–,–,14.05,14.05,about 45%,−2.39,40-60%,–,–,–,–
"CCCCCCCCCCC[C@@H](C[C@@H]1OC(=O)[C@H]1CCCCCC)OC(=O)[C@H](CC(C)C)NC=O [Orlistat, (25)-2-Formylamino-4-methylpentansäure-(1S)-1-{[(35,4S)-3-hexyl-2-oxo-4-oxetanyl]methyl}dodecylester, reference compound]",–,–,–,–,–,–,–,–,–,–,–,31.14% and 30.40%,31.14,30.4
